Measured values published in US9096608B2, “Pharmaceutically active pyrazolo-triazine derivatives” (LEAD DISCOVERY CENTER GMBH, priority 2012, dated 2015).
Read-outs that look alike come from different tables or passages of the source.

Columns and labels:
Assay type in all cases: biochemical
CDK2/CycA = biological target: T1, CDK2/CycA (Homo sapiens, UniProt P24941); assay: CDK2 Enzymatic Activity Assay (Lance Kinase Activity Assay, FRET); details: for CDK2 IC50 range class: Table 5B, symbols per IC50 ranges of b615
T1 construct: purchased Proqinase
Outline: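 Compounds serially diluted 1:3 over 8 steps, run with CDK2/CycA, ULight-MBP substrate and ATP in HEPES pH 7.5 buffer for 1 h at room temperature. LANCE TR-FRET detection with Eu-anti-phospho-MBP after EDTA stop; IC50 from sigmoidal dose-response curves.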

CDK7/CycH/Mat1 = biological target: T2, CDK7/CycH/Mat1 (Homo sapiens, UniProt P50613); assay: CDK7 Enzymatic Activity Assay (Lance Kinase Activity Assay, FRET)
T2 construct: purchased Carna
T2 sequence (P50613 whole entry): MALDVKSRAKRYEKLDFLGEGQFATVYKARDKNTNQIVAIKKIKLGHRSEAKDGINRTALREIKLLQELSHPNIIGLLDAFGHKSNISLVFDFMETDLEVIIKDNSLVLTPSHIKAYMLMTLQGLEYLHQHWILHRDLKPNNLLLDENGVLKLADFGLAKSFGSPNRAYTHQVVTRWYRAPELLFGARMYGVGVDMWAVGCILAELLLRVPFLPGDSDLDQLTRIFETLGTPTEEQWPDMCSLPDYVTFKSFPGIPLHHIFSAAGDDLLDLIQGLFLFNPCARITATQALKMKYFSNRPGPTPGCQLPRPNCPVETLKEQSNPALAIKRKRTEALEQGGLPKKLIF
T2 sequence (P51946 whole entry partner): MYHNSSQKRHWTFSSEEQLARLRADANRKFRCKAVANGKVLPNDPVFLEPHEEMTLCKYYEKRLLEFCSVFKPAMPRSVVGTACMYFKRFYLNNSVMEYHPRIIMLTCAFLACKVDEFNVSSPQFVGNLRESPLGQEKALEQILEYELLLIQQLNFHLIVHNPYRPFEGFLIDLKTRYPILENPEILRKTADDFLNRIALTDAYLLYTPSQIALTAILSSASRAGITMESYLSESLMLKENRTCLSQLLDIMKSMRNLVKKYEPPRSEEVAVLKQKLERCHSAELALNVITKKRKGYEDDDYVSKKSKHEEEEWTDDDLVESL
T2 sequence (P51948 whole entry partner): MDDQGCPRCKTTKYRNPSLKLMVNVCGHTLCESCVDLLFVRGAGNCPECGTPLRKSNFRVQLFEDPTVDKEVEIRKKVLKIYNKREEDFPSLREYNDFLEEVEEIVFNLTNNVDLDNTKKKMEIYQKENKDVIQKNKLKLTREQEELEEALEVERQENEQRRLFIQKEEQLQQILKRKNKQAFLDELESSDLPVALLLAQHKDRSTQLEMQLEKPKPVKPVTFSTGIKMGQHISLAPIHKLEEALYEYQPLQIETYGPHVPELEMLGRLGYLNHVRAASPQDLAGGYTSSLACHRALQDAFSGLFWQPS
Outline: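 TR-FRET (LANCE) kinase assay with ULight-MBP peptide substrate and Eu-labelled anti-phospho antibody; compounds in 8-point 1:3 series in HEPES 50 mM pH 7.5, MgCl2 10 mM, EGTA 1 mM, DTT 2 mM, 0.01% Tween-20.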

CDK9/Cyclin T1 = biological target: T3, CDK9/Cyclin T1 (Homo sapiens, UniProt P50750); assay: CDK9 Enzymatic Activity Assay (Lance Kinase Activity Assay, FRET); details: for CDK9: Selectivity of CDK7 inhibition over CDK9 inhibition [fold]: Table 5B, symbols per IC50 ranges of b615
T3 construct: purchased Invitrogen
T3 sequence (P50750 whole entry): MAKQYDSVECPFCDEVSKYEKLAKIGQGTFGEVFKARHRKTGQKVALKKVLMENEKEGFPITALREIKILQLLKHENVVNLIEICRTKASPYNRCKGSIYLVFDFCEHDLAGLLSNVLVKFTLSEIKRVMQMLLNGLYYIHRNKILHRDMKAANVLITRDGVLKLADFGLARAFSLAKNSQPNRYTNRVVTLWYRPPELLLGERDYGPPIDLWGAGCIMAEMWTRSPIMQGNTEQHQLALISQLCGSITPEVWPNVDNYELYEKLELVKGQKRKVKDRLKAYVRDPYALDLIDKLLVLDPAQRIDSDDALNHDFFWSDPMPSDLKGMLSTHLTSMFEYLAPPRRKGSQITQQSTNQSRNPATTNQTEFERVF
T3 sequence (O60563 whole entry partner): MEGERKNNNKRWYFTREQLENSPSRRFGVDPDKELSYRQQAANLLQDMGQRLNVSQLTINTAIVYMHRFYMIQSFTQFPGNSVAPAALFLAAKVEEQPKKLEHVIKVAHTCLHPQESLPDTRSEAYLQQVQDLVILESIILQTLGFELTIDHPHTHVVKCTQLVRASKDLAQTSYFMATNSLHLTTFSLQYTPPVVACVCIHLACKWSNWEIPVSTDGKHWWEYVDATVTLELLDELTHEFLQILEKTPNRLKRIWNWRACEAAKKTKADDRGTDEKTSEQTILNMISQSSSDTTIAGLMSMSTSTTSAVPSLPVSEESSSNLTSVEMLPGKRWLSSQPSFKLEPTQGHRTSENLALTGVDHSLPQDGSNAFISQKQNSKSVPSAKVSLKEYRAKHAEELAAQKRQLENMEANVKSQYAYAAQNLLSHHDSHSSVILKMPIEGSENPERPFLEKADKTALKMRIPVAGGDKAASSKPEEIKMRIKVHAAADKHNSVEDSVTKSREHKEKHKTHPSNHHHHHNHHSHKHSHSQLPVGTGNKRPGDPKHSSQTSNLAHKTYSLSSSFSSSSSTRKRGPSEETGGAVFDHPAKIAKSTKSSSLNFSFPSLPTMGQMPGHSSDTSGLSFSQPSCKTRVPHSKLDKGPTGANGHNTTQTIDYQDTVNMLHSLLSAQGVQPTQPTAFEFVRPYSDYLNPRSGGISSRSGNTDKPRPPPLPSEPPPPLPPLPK
Outline: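 TR-FRET detection of ULight-MBP substrate phosphorylation by CDK9/cyclin T1 using a Eu-anti-phospho-MBP antibody, in 50 mM HEPES pH 7.5, 10 mM MgCl2, 1 mM EGTA, 2 mM DTT, 0.01% Tween-20. Kinase reaction 1 h at room temperature, then EDTA detection buffer for 1 h before reading.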

[1] = Table 5A, 25 μM ATP final, read-out: CDK7: IC50 [mM] for CDK7 inhibition (the above defined ranges apply)

| Structure (SMILES) | CDK2 IC50 range class (CDK2/CycA) | Selectivity CDK7 over CDK2 [fold] (CDK2/CycA; Table 6, CDK2 activity as multiple of CDK7 activity) | multiplicity of the CDK2 and CDK9 activity in terms of the CDK7 activity (CDK7/CycH/Mat1; CDK2 and CDK9 IC50 relative to CDK7 IC50, highest of the two ('up to')) [fold] | IC50 (CDK7/CycH/Mat1; [1]) [nM] | IC50 (CDK7/CycH/Mat1; Table 6, read-out: IC50 [nM] CDK7) [nM] | selectivity for CDK7 against CDK2 and CDK9 (in words) (CDK7/CycH/Mat1; comparison of the enzymatic activity assays for CDK2, CDK7 and CDK9) | CDK9: Selectivity of CDK7 inhibition over CDK9 inhibition [fold] (CDK9/Cyclin T1) | Selectivity CDK7 over CDK9 [fold] (CDK9/Cyclin T1; Table 6, CDK9 activity as multiple of CDK7 activity) |
| --- | --- | --- | --- | --- | --- | --- | --- | --- |
| CC(C)c1cnn2c(N[C@@H](C)c3ccccc3)nc(O[C@@H]3CCCNC3)nc12 [(VII-j), 8-isopropyl-N-((S)-1-phenylethyl)-2-((R)-piperidin-3-yloxy)pyrazolo[1,5-a][1,3,5]triazin-4-amine] | +++ (IC50>2500 nM) | 733 | > 733 | < 10 | < 10 | selectively inhibits only CDK7 | +++ (IC50>2500 nM) | 598 |
| CC(C)c1cnn2c(N[C@@H](C)c3ccccc3)nc(OC3CCC(N)CC3)nc12 (stereo partly drawn) [(VII-k), (S)-2-((4-aminocyclohexyl)oxy)-8-isopropyl-N-(1-phenylethyl)pyrazolo[1,5-a][1,3,5]triazin-4-amine] | +++ (IC50>2500 nM) |  |  | < 10 |  |  | +++ (IC50>2500 nM) |  |
| COc1cccc([C@H](C)Nc2nc(O[C@@H]3CCCNC3)nc3c(C(C)C)cnn23)c1 [(VII-r), 8-isopropyl-N-((S)-1-(3-methoxyphenyl)ethyl)-2-((R)-piperidin-3-yloxy)pyrazolo[1,5-a][1,3,5]triazin-4-amine] | +++ (IC50>2500 nM) |  |  | < 10 |  |  | +++ (IC50>2500 nM) |  |
| COc1cccc([C@H](C)Nc2nc(NCCN)nc3c(C(C)C)cnn23)c1 [(VIII-V), (S)-N2-(2-aminoethyl)-8-isopropyl-N4-(1-(3-methoxyphenyl)ethyl)pyrazolo[1,5-a][1,3,5]triazine-2,4-diamine] | +++ (IC50>2500 nM) |  |  | > 100 |  |  | +++ (IC50>2500 nM) |  |
| COc1cccc([C@H](C)Nc2nc(N(C)CCCN3CCCCC3)nc3c(C(C)C)cnn23)c1 [(VIII-X), (S)-8-isopropyl-N4-(1-(3-methoxyphenyl)ethyl)-N2-methyl-N2-(3-(piperidin-1-yl)propyl)pyrazolo(1,5-a][1,3,5]triazine-2,4-diamine] | +++ (IC50>2500 nM) |  |  | > 100 |  |  | +++ (IC50>2500 nM) |  |
| COc1cccc([C@H](C)Nc2nc(N3CC4(CCNC4)C3)nc3c(C(C)C)cnn23)c1 [(VIII-ae), (S)-8-isopropyl-N-(1-(3-methoxyphenyl)ethyl)-2-(2,6-diazaspiro[3.4]octan-2-yl)pyrazolo[1,5-a][1,3,5]triazin-4-amine] | +++ (IC50>2500 nM) |  |  | < 10 |  |  | +++ (IC50>2500 nM) |  |
| COc1cccc([C@H](C)Nc2nc(N3CCC4(CCNC4)C3)nc3c(C(C)C)cnn23)c1 (stereo partly drawn) [(VIII-af), 8-isopropyl-N-((S)-1-(3-methoxyphenyl)ethyl)-2-(2,7-diazaspiro[4.4]nonan-2-yl)pyrazolo[1,5-a][1,3,5]triazin-4-amine] | +++ (IC50>2500 nM) |  |  | 10 to 30 |  |  | +++ (IC50>2500 nM) |  |
| COc1cccc([C@H](C)Nc2nc(N3CCC34CCCNC4)nc3c(C(C)C)cnn23)c1 (stereo partly drawn) [(VIII-ag), 8-isopropyl-N-((S)-1-(3-methoxyphenyl)ethyl)-2-(1,6-diazaspiro[3.5]nonan-1-yl)pyrazolo[1,5-a][1,3,5]triazin-4-amine] | +++ (IC50>2500 nM) |  |  | 10 to 30 |  |  | +++ (IC50>2500 nM) |  |
| COc1cccc([C@H](C)Nc2nc(N3CCCC4(CCCCN4)C3)nc3c(C(C)C)cnn23)c1 (stereo partly drawn) [(VIII-ah), 8-isopropyl-N-((S)-1-(3-methoxyphenyl)ethyl)-2-(1,8-diazaspiro[5.5]undecan-8-yl)pyrazolo[1,5-a][1,3,5]triazin-4-amine] | +++ (IC50>2500 nM) |  |  | < 10 |  |  | +++ (IC50>2500 nM) |  |
| COc1cccc([C@H](C)Nc2nc(N3CCC4(CCCN4)CC3)nc3c(C(C)C)cnn23)c1 [(VIII-ai), (S)-8-isopropyl-N-(1-(3-methoxyphenyl)ethyl)-2-(1,8-diazaspiro[4.5]decan-8-yl)pyrazolo[1,5-a][1,3,5]triazin-4-amine] | +++ (IC50>2500 nM) |  |  | < 10 |  |  | +++ (IC50>2500 nM) |  |
| COc1cccc([C@H](C)Nc2nc(N3CCC4(CCN4)CC3)nc3c(C(C)C)cnn23)c1 [(VIII-aj), (S)-8-isopropyl-N-(1-(3-methoxyphenyl)ethyl)-2-(1,7-diazaspiro[3.5]nonan-7-yl)pyrazolo[1,5-a][1,3,5]triazin-4-amine] | +++ (IC50>2500 nM) |  |  | < 10 |  |  | +++ (IC50>2500 nM) |  |
| COc1cccc([C@H](C)Nc2nc(N3CCCC34CCNCC4)nc3c(C(C)C)cnn23)c1 [(VIII-ak), (S)-8-isopropyl-N-(1-(3-methoxyphenyl)ethyl)-2-(1,8-diazaspiro[4.5]decan-1-yl)pyrazolo[1,5-a][1,3,5]triazin-4-amine] | +++ (IC50>2500 nM) |  |  | 10 to 30 |  |  | +++ (IC50>2500 nM) |  |
| COc1cccc([C@H](C)Nc2nc(N3CCC34CCNCC4)nc3c(C(C)C)cnn23)c1 [(VIII-al), (S)-8-isopropyl-N-(1-(3-methoxyphenyl)ethyl)-2-(1,7-diazaspiro[3.5]nonan-1-yl)pyrazolo[1,5-a][1,3,5]triazin-4-amine] | +++ (IC50>2500 nM) |  |  | < 10 |  |  | +++ (IC50>2500 nM) |  |
| COc1cccc([C@H](C)Nc2nc(N[C@@H]3CCCNC3)nc3c(C(C)C)cnn23)c1 [(VIII-h), 8-isopropyl-N4-((S)-1-(3-methoxyphenyl)ethyl)-N2-((R)-piperidin-3-yl)pyrazolo[1,5-a][1,3,5]triazine-2,4-diamine] | +++ (IC50>2500 nM) |  |  | 10 to 30 |  |  | +++ (IC50>2500 nM) |  |
| COc1cccc([C@H](C)Nc2nc(NCCCN3CCOCC3)nc3c(C(C)C)cnn23)c1 [(VIII-j), (S)-8-isopropyl-N4-(1-(3-methoxyphenyl)ethyl)-N2-(3-morpholinopropyl)pyrazolo[1,5-a][1,3,5]triazine-2,4-diamine] | +++ (IC50>2500 nM) |  |  | > 100 |  |  | +++ (IC50>2500 nM) |  |
| COc1cccc([C@H](C)Nc2nc(N(C)CCN3CCCC3)nc3c(C(C)C)cnn23)c1 [(VIII-k), (S)-8-isopropyl-N4-(1-(3-methoxyphenyl)ethyl)-N2-methyl-N2-(2-(pyrrolidin-1-yl)ethyl)pyrazolo[1,5-a][1,3,5]triazine-2,4-diamine] | +++ (IC50>2500 nM) |  |  | > 100 |  |  | +++ (IC50>2500 nM) |  |
| COc1cccc([C@H](C)Nc2nc(NCCN3CCCC3)nc3c(C(C)C)cnn23)c1 [(VIII-l), (S)-8-isopropyl-N4-(1-(3-methoxyphenyl)ethyl)-N2-(2-(pyrrolidin-1-yl)ethyl)pyrazolo[1,5-a][1,3,5]triazine-2,4-diamine] | +++ (IC50>2500 nM) |  |  | > 100 |  |  | +++ (IC50>2500 nM) |  |
| COc1cccc([C@H](C)Nc2nc(NCCN3CCOCC3)nc3c(C(C)C)cnn23)c1 [(VIII-m), (S)-8-isopropyl-N4-(1-(3-methoxyphenyl)ethyl)-N2-(2-morpholinoethyl)pyrazolo[1,5-a][1,3,5]triazine-2,4-diamine] | +++ (IC50>2500 nM) |  |  | > 100 |  |  | +++ (IC50>2500 nM) |  |
| COc1cccc([C@H](C)Nc2nc(N3CC(N4CCCC4=O)C3)nc3c(C(C)C)cnn23)c1 [(VIII-n), (S)-1-(1-(8-isopropyl-4-((1-(3-methoxyphenyl)ethyl)amino)pyrazolo[1,5-a][1,3,5]triazin-2-yl)azetidin-3-yl)pyrrolidin-2-one] | +++ (IC50>2500 nM) |  |  | > 100 |  |  | +++ (IC50>2500 nM) |  |
